# Assay results taken from patent US20130143800A1, “COMBINATION THERAPIES TO TREAT DIABETES” (RESEARCH DEVELOPMENT FOUNDATION, priority 2011, published 2013).
# Like-named read-outs stand apart in the source and are kept apart here.
# What was measured:
# HIF1α [1] = test: Immunoblot of HIF1α in INS-1 cells; type: cell-based, rat
# Method: (§1) Immunoblot and immunoprecipitation: Immunoblots were performed as described (Dentin et al., 2008). For immunoprecipitations, cell lysates were incubated with primary antibody and 25 μl of a 50% slurry of protein G agarose beads for 4 hours with rotation at 4° C. Immunoprecipitates were washed with lysis buffer and denatured by boiling in 20 μl SDS sample buffer.
# (§2) INS-1 insulinoma cells were cultured in RPMI 1640 (Mediatech) with 10% heat inactivated fetal bovine serum (Sigma), 2 mM glutamine (Mediatech), 1 mM sodium pyruvate (Mediatech), 100 μg/ml penicillin-streptomycin (Mediatech) and 0.05 mM β-mercaptoethanol. HEK 293T cells were cultured in DMEM (Mediatech) with 10% fetal bovine serum and 100 μg/ml penicillin-streptomycin. Forskolin (10 μM), LY294002 (50 μM), and DMOG (1 mM) were added to cells as indicated. Cells were exposed to rapamycin (50 nM) or to cycloheximide (100 μg/ml) overnight. For glucose and Exendin-4 treatments, INS-1 cells were glucose and serum starved for 1 hour, and stimulated with glucose or 2-deoxyglucose (20 mM) with or without Exendin-4 (10 nM). HEK 293T cells were transfected with polyethylenimine (PEI) and INS-1 cells with Lipofectamine2000 (Invitrogen; 11668-019). For HIF-1α translational reporter experiment, INS-1 cells were transfected with pLUXHIF1α5′UTR or pLUX control vector (generous gift of John Blenis). After 24 hours, cells were exposed to rapamycin overnight where indicated. After forskolin treatment, cells were harvested for Renilla/firefly luciferase activity. […]
# HIF1α [2] = test: Immunoblot of HIF1α in primary hepatocytes; type: cell-based; conditions: cultured primary hepatocytes
# HIF = test: HRE-luc reporter in primary hepatocytes; type: cell-based; conditions: cultured primary hepatocytes
# Text: Plasmids expressing cDNAs for HA-HIF-1α […]/P564A (18955) were purchased from Addgene. HRE-LUC reporter construct was generously provided by Randall Johnson (UCSD).
# [3] = tested on: hypoxia-inducible factor (HIF); test: HRE-luc reporter transient assay in INS-1 cells; type: cell-based, rat
# Method: (§3) INS-1 insulinoma cells were cultured in RPMI 1640 (Mediatech) with 10% heat inactivated fetal bovine serum (Sigma), 2 mM glutamine (Mediatech), 1 mM sodium pyruvate (Mediatech), 100 μg/ml penicillin-streptomycin (Mediatech) and 0.05 mM β-mercaptoethanol. HEK 293T cells were cultured in DMEM (Mediatech) with 10% fetal bovine serum and 100 μg/ml penicillin-streptomycin. Forskolin (10 μM), LY294002 (50 μM), and DMOG (1 mM) were added to cells as indicated. Cells were exposed to rapamycin (50 nM) or to cycloheximide (100 μg/ml) overnight. For glucose and Exendin-4 treatments, INS-1 cells were glucose and serum starved for 1 hour, and stimulated with glucose or 2-deoxyglucose (20 mM) with or without Exendin-4 (10 nM). HEK 293T cells were transfected with polyethylenimine (PEI) and INS-1 cells with Lipofectamine2000 (Invitrogen; 11668-019). For HIF-1α translational reporter experiment, INS-1 cells were transfected with pLUXHIF1α5′UTR or pLUX control vector (generous gift of John Blenis). After 24 hours, cells were exposed to rapamycin overnight where indicated. After forskolin treatment, cells were harvested for Renilla/firefly luciferase activity. Normalized luciferase activities are shown.
# Plasmids expressing cDNAs for HA-HIF-1α P402A/P564A (18955) were purchased from Addgene. HRE-LUC reporter construct was generously provided by Randall Johnson (UCSD).
# mTORC1 = test: Immunoblot of phospho-S6 in INS-1 cells; type: cell-based, rat; conditions: co-incubation of mTOR inhibitor with FSK
# Method: as §1
# as §2, with “Blenis).” for “Blenis). After 24 hours, cells were exposed to rapamycin overnight where indicated. After forskolin treatment, cells were harvested for Renilla/firefly luciferase activity.”
# INS-1 cells = test: Cell size determination in INS-1 cells; type: cell-based, rat; conditions: co-incubation with FSK
# Method: For cell size measurements, INS-1 cells were plated on 6 cm dishes, treated as indicated, trypsinized and resuspended in PBS. Cell diameter was measured using a particle size counter.
# INS-1 insulinoma cells = test: Gene profiling and Q-PCR of cAMP inducible genes in INS-1 cells; type: cell-based, rat; conditions: INS-1 cells exposed to FSK
# Method: as §3
# Gene profiling experiments were performed on total RNA from INS-1 cells using an Affymetrix Rat Gene Array as previously described (Zhang et al., 2005).
# mRNA levels were quantified by Q-PCR analysis as previously described (Dentin, 2007). Oligonucleotides were designed to target rat gene sequences.
# [4] = cited from earlier work
# [5] = mildly hyperglycaemic patients with Type 2 diabetes on metformin; cited from earlier work
# human GLP-1 receptor = human GLP-1 receptor (Homo sapiens, UniProt P43220); conditions: greater affinity than native GLP-1; cited from earlier work
# [6] = plus protein synthesis inhibitor
# [7] = prolonged exposure, particularly under high glucose (20 mM)
# human GLP-1 receptor, sequence (P43220 24-463): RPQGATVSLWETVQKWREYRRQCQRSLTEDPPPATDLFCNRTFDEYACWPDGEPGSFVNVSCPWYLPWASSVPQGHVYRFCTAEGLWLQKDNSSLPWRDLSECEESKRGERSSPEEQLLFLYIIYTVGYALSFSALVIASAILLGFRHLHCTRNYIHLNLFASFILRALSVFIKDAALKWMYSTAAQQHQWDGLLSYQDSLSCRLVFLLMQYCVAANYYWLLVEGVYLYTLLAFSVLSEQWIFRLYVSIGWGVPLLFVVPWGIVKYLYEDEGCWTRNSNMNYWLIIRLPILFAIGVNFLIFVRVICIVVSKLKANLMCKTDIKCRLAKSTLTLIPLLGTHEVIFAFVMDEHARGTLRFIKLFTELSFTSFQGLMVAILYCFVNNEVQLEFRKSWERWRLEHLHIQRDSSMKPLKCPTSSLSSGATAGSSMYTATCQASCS
molecule,measurement,setting,value
"COC(=O)CNC(=O)C(=O)OC [DMOG, Dimethyloxalyl Glycine]",HIF1α protein levels,HIF1α [1]; agent alone,increased
same,HIF1α accumulation,HIF1α [2],triggered
same,HRE-luc reporter activation,HIF,triggered
"C=C[C@@]1(C)CC(=O)[C@]2(O)[C@@]3(C)[C@@H](O)CCC(C)(C)[C@@H]3[C@H](O)[C@H](OC(C)=O)[C@@]2(C)O1 [FSK, Forskolin]",HIF1α accumulation,HIF1α [2],no effect
same,HRE-luc reporter activation,HIF,no effect
O=S(=O)(NCCNC/C=C/c1ccc(Br)cc1)c1cccc2cnccc12 [H89],induction of the HRE-luc reporter by FSK,[3]; co-incubation with inhibitor,blocked
same,induction of the HRE-luc reporter by IBMX,[3]; co-incubation with inhibitor,blocked
CC(C)Cn1c(=O)n(C)c(=O)c2[nH]cnc21 [IBMX],HRE-luc reporter activity,[3]; time not stated,increased
CC(C)n1nc(-c2cc3cc(O)ccc3[nH]2)c2c(N)ncnc21 [PP242],effects of FSK on S6 phosphorylation,mTORC1,blocked
same,effects of FSK on HIF1α induction,HIF1α [1]; co-incubation of mTOR inhibitor with FSK,blocked
same,effects of FSK on cell size,INS-1 cells,blocked
C[C@@H]1C[C@@H]([C@H](O)CC2CC(=O)NC(=O)C2)C(=O)[C@@H](C)C1 [cycloheximide],expression of CREB target genes,INS-1 insulinoma cells; [6],enhanced
same,expression of late phase genes like HMOX1 by FSK,INS-1 insulinoma cells; [6],reduced
CO[C@H]1C[C@@H]2CC[C@@H](C)[C@@](O)(O2)C(=O)C(=O)N2CCCC[C@H]2C(=O)O[C@H]([C@H](C)C[C@@H]2CC[C@@H](O)[C@H](OC)C2)CC(=O)[C@H](C)/C=C(\C)[C@@H](O)[C@@H](OC)C(=O)[C@H](C)C[C@H](C)/C=C/C=C/C=C/1C [rapamycin],induction of CREB target genes such as NR4A2,INS-1 insulinoma cells; plus rapamycin,no effect
Albiglutide,half-life,[4]; after administration,four to seven
Exendin-4: GLP-1 agonist,HIF1α protein accumulation,HIF1α [1]; [7],increased
same,HRE-luc reporter activity,[3]; [7],increased
Lixisenatide,half-life,[4]; in vivo,2.5 to 4 h
same,glycaemic control,[5],significantly improve
same,affinity for the human GLP-1 receptor compared with native GLP-1,human GLP-1 receptor,approximately 4 fold
